{"source": "patent US20100322861A1", "about": "“ENGINEERED CELLS, IMAGING REPORT GENE/PROBE SYSTEMS, AND METHODS OF IMAGING” (priority 2007, published 2010)", "key": {"HSV1-tk expressing CTLs": {"tested_on": "HSV1-tk expressing CTLs", "assay": "In vitro assays of Ganciclovir induced cell death of HSV1-tk expressing CTLs", "format": "cell-based, human", "conditions": "previous in vitro assays"}, "[1]": {"conditions": "in vivo, iv", "source_text": "Two coronal slices are shown to illustrate activity within the liver, gall-bladder, intestines, kidneys and bladder, which are organs involved with [^18F]FHBG's clearance from the body."}, "[2]": {"tested_on": "cytolytic T cells expressing IL13 zetakine and HSV1-tk genes", "assay": "[18F]FHBG PET imaging of infused HSV1-tk expressing CTLs in a glioma patient", "format": "in vivo, human", "text": "The CTLs were imaged with the PET reporter probe 9-[4-[^18F]Fluoro-3-(hydroxymethyl)butyl]guanine ([^18F]FHBG), because they constitutively express the PET reporter gene (PRG) HSV1-tk. (4) [^18F]FHBG is approved by the FDA as an investigational new drug (IND #61,880) for PET imaging at UCLA and Stanford University nuclear medicine clinics. UCLA's medical internal review board (M-IRB) has approved [^18F]FHBG PET imaging in normal volunteers, glioma patients and glioma patients who are enrolled in adoptive cellular gene therapy, when the infused cells express the PRG HSV1-tk. Stanford University's M-IRB has approved [^18F]FHBG PET imaging in glioma patients. COHNMC's M-IRB has approved referral of the patient's enrolled in the CTL therapy study for [^18F]FHBG PET imaging at UCLA.\n254.62 MBq (6.88 mCi) [^18F]FHBG was injected through the other iv line (FDA limit 7 mCi). At approximately two-hours and fifteen minutes after [^18F]FHBG injection, the whole-body PET emission scan started from the patient's head to bottom, using an ECAT EXACT HR+PET scanner (CTI/Siemens, Inc., Knoxville, Tenn.). The whole-body scan consisted of 7 bed positions (7-minutes each). Three minute transmission scans followed each 7 minute emission scans. A two bed position head scan immediately followed completion of the whole-body scan. […] In addition, enhanced [^18F]FHBG accumulation was observed near the patient's corpus callosum. This indicates trafficking of infused CTLs to the remote corpus callosum tumor. The level of [^18F]FHBG accumulation is greater than what has been observed in control GBM patients who had tumor resections or intact tumors. Table 1 (FIG. 6) includes quantitative data of tumor to background ratios, comparing [^18F]FHBG accumulation levels of the CTL infused patient described in this example and control patients. Relative to similar controls, [^18F]FHBG accumulation is 2.6× higher in the patient's tumor resection site and 2.8× higher in the remote corpus callosum tumor site. […] Finally, a stereotactic biopsy of the left sided corpus callosum within a week of the [^18F]FHBG PET scan confirmed the presence of malignant disease infiltrated with CD8+ T cells."}, "HSV1-TK": {"tested_on": "HSV1-TK", "assay": "Cell culture uptake assay of [3H]Penciclovir into patient CTLs versus control Jurkat cells", "format": "cell-based, Herpes Simplex Virus 1", "conditions": "about 1 μCi/ml, control Jurkat cells not expressing HSV1-tk", "experimental": "FIG. 5 is a bar graph that illustrates the uptake of [^3H]Penciclovir into the genetically engineered CTL clone that was infused into the patient and control Jurkat cells. The autologous patient CTLs were genetically engineered to constitutively express HSV1-tk. The control cells expressed Firefly luciferase instead of HSV1-tk. […] The symbol “*” indicates significant difference between uptake of [^3H]PCV into patient CTLs vs control cells at 4 hours (P<0.001).\nThe patient of the present example received a total of approximately 1×10^9 CTLs within a five-week period of direct infusions (one week break between weeks 2 and 4). It is both possible that these cells proliferate or some die once injected into the patient. The number of cells present within the tumor resection site and the intact tumor near the corpus callosum could not be specifically quantified. That would require a pharmacokinetic model ((2004) J Nucl Med 45, 1560-1570, which is incorporated herein by reference) for [^18F]FHBG at brain tumor sites and knowing HSV1-tk expression levels per CTL at imaging time. […] This low level of activity explains why [^18F]FHBG accumulation in CTL infusion sites and intact tumor is only 2-3× higher than background. In fact during uptake assay cultured cells were exposed to a relatively constant concentration of about 1 μCi/ml; whereas assuming homogeneous distribution of [^18F]FHBG in 6 liters of blood, the maximum concentration CTLs would have been exposed to within the first 1-2 minutes after injection would have been about 1 μCi/ml, but then there is a rapid decline in blood concentration of [^18F]FHBG within the first 20-40 minutes following it's injection. Despite that, [^18F]FHBG's ability to detect the CTLs may be due to the low background within the surrounding brain tissue and the presence of a large number of CTLs."}}}
{"compound": "Nc1nc(O)c2ncn(COC(CO)CO)c2n1", "note": "[Ganciclovir]", "values": [{"measurement": "Ganciclovir induced cell death of CTLs", "setting": "HSV1-tk expressing CTLs", "result": "susceptibility to Ganciclovir induced cell death"}]}
{"compound": "Nc1nc2c(ncn2CCC(CO)C[18F])c(=O)[nH]1", "note": "(stereo not drawn) [[^18F]FHBG, 9-[4-[^18F]fluoro-3-(hydroxymethyl)butyl]guanine]", "values": [{"measurement": "clearance from tissues not involved in its clearance", "setting": "[1]; human", "result": "clears very rapidly"}, {"measurement": "time of rapid decline in blood concentration following injection", "setting": "[1]", "result": "20 to 40", "unit": "min"}, {"measurement": "tumor 2/meninges [18F]FHBG activity ratio", "setting": "[2]; CTL infused patient, non-resected tumor near corpus callosum, images approximately two hours after injection", "result": 1.57}, {"measurement": "tumor 1/meninges [18F]FHBG activity ratio", "setting": "[2]; CTL infused patient, surgically resected tumor site, images approximately two hours after injection", "result": 1.75}, {"measurement": "[18F]FHBG accumulation versus background", "setting": "[2]; CTL infusion sites and intact tumor", "result": "2-3 ×"}, {"measurement": "average intact tumor site to meninges [18F]FHBG activity ratio", "setting": "[2]; control patients (no CTLs)", "result": 0.44}, {"measurement": "average resected tumor site/meninges [18F]FHBG activity ratio", "setting": "[2]; control patients (no CTLs)", "result": 0.86}, {"measurement": "[18F]FHBG accumulation relative to similar controls", "setting": "[2]; patient's tumor resection site", "result": 2.6, "unit": "×"}, {"measurement": "[18F]FHBG accumulation relative to similar controls", "setting": "[2]; remote corpus callosum tumor site", "result": 2.8, "unit": "×"}, {"measurement": "[18F]FHBG accumulation in the CTL infused patient versus control patients", "setting": "[2]; resection site and intact tumor, quantitative analysis", "result": "greater than two times higher"}]}
{"compound": "[^3H]Penciclovir", "values": [{"measurement": "[3H]PCV uptake into CTL clone relative to control cells", "setting": "HSV1-TK; 1 h", "result": 2.7, "unit": "×"}, {"measurement": "[3H]PCV uptake into CTL clone relative to control cells", "setting": "HSV1-TK; 1 h, listed as [^3H]PCV", "result": "approximately 3 ×"}, {"measurement": "[3H]PCV uptake into CTL clone relative to control cells", "setting": "HSV1-TK; 4 h", "result": 9.3, "unit": "×"}, {"measurement": "[3H]PCV uptake into CTL clone relative to control cells", "setting": "HSV1-TK; 4 h, listed as [^3H]PCV", "result": "~9", "unit": "×"}]}
